Measurements reported in patent US12728099B2, “Formulation to deliver lipophilic active ingredients” (priority 2020, dated 2026).
Values after ≈ are worked out from the molar mass of the structure shown. Read-outs that look alike come from different tables or passages of the source.

Tests used:
[1] = cited from earlier work
[2] = Particle size by light scattering; format: physicochemical
Procedure: The nanostructured PEA suspension obtained according to Example 1 was analyzed by light scattering to assess the size of the nanoparticles.

[3] = Solubility in different dissolution media (HPLC); conditions: 25 °C, thermodynamic from solid
[4] = Morphology by scanning electron / optical microscopy; format: physicochemical; conditions: SEM or optical microscope
Procedure: Morphologically, scanning electron microscopy (SEM) analyses of both forms were performed.

[5] = Dissolution rate in 1% aqueous sodium cholate solution (HPLC); format: physicochemical; conditions: 1% w/v sodium cholate, total 30 μg/mL
Procedure: Chromatogram recording was performed at 210 nm.

CCCCCCCCCCCCCCCC(=O)NCCO [Raw PEA, Palmitoylethanolamide]
Solubility ([1]; methanol, ethanol, and isopropyl alcohol): poorly soluble | Solubility ([1]; water, oils, and most common organic solvents): practically insoluble | Size (nm ± SD) [2]: Macro and microscopic flakes | solubility at 24 h ([3]; demineralized water, water): < 0.1 µg/mL | solubility at 24 h ([3]; phosphate buffer, pH 7.4, aqueous buffer): 0.64 ± 0.05 µg/mL (≈ 2.14 µM) | solubility at 24 h ([3]; simulated intestinal fluid, pH 6.8, fassgf or other biorelevant): 0.22 ± 0.03 µg/mL (≈ 0.735 µM) | solubility at 24 h ([3]; simulated pulmonary fluid, pH 7.4, fassgf or other biorelevant): 0.8 ± 0.12 µg/mL (≈ 2.67 µM) | Morphology / obtainment of nanostructures [4]: irregular macroscopic agglomerates (a few tens of microns) | Dissolved PEA (dissolution rate) ([5]; 30 min): 3.31 ± 2.30 µg/mL | Dissolved PEA (dissolution rate) ([5]; 1 hour): 4.56 ± 1.02 µg/mL | Dissolved PEA (dissolution rate) ([5]; 2 hours): 6.15 ± 1.22 µg/mL | Dissolved PEA (dissolution rate) ([5]; 4 hours): 8.61 ± 0.68 µg/mL | Dissolved PEA (dissolution rate) ([5]; 6 hours): 9.31 ± 0.71 µg/mL
